Patent US20250108062A1, “VITAMIN NANOCLUSTERS AS THERAPEUTIC AND NUTRACEUTIC AGENTS AND CARRIERS” (FONDAZIONE ISTITUTO ITALIANO DI TECNOLOGIA, priority 2022, published 2025)

Tested on: Bone Marrow Derived Monocytes (BMDM)
Assay: MTT cell viability / toxicity on BMDMs
Settings: 24, 48, 72 h, all tested concentrations
Description: After 24, 48, or 72 h of incubation, the culture medium was removed, a MTT solution was added to each well according to the manufacturer's instruction. The absorbance of formazan crystals dissolved in EtOH was quantified using a microplate spectrophotometer at a wavelength of 570 nm, using 650 nm as the reference wavelength (Tecan, Mannedorf, Swiss). The percentage of cell viability was assessed according to the following equation:
where, Abst was the absorbance of treated cells and Abs, was the absorbance of control (untreated) cells.

Structure (SMILES): C=C1CC[C@H](O)C/C1=C/C=C1\CCC[C@]2(C)[C@@H]([C@H](C)CCCC(C)C)CC[C@@H]12 [free Vitamin D3, Vitamin D3]
- cytotoxicity (MTT cell viability): do not induce a significant cytotoxicity
